Assay results reported in article PMC8274846, “Biogenic nanoporous silicon carrier improves the efficacy of buparvaquone against resistant visceral leishmaniasis” (PLoS Neglected Tropical Diseases, 2021).
Read-outs that look alike come from different tables or passages of the source.

Tests used:
[1] = tested on: axenic L.donovani amastigotes, AG83-R, PMM (PMM resistant strain generated from AG83); assay: microbe, parasite or virus in culture; assay type: cell-based
Procedure: (§1) L. donovani AG83 (MHOM/IN/83/AG83) and GE1 (MHOM/IN/80/GE1F8R) promastigotes were routinely grown in medium 199 supplemented with 10% heat-inactivated fetal bovine serum, 2 mM L-glutamine, 20 mM HEPES, 100 U/mL penicillin, and 100 μg/mL streptomycin at 25°C. L. donovani amastigote forms were grown and maintained as described previously. Axenic amastigote forms were derived from promastigote forms by culturing them in MMA/20 (medium for axenic amastigote) at pH 5.5 [22]. Axenically grown amastigotes were maintained by sub-culture of 10^5 parasites/ml repeated every fifth day under experimental conditions of 37°C temperature and 5% CO2 environment.
(§2) SSG and PMM resistant L. donovani amastigotes were generated by using the methods described previously. […] The cultures were stabilized for three subcultures. Then, the drug concentration was increased until the cell population decreased approximately to 20% for each batch. Finally, when 90% cell population of the initial count was reduced, the phenotype generated was plated on medium 199 agar plates containing the same drug concentration, and a single colony was picked for culture in medium 199 liquid media at the same drug concentration. The cultured promastigotes are converted into amastigotes as described above. Drug pressure was withdrawn, and stability was checked at one, two, and four months. SSG and PMM resistant phenotype clones were labeled as AG83-R,SSG and AG83-R, PMM, respectively.
(§3) The antileishmanial activity of the drug specimens (BPQ+NP, BPQ, SSG, AmB, PMM, and MF) against the axenic amastigotes were evaluated based on the IC50 value, which is the concentration of the specimen required to kill 50% of the parasites. The parasites were first seeded into 96-well plates at a density of 1x10^5 amastigotes/well in 200 μL medium. Then, 10 μL of the drug candidates at various concentrations were added and the final volume was adjusted to […] medium. The number of amastigotes in the wells treated with each specimen were compared to those in the untreated control wells.
(§4) Microscopic examinations were performed in duplicates with various concentrations of pure drugs or buparvaquone-loaded nanoparticles and also for control wells. The amastigotes cells were counted for all cases using a hemocytometer. The mean of the control wells was considered as 100% survival. The counts in the treated wells at various concentrations were converted into percentages. Giemsa-stained slides of the macrophages infected with amastigotes were observed under a light microscope. Then the numbers of amastigotes and infected macrophages per 100 cells were counted for each slide. The percentage (%) of inhibition was calculated by using the equation %ofinhibition=C−T/C×100, (2) where C is the number of amastigotes/infected macrophages per 100 cells in the control well and T is the number of amastigotes/infected macrophages per 100 cells in the drug-treated well.
(§5) Origin version 6.1 software was used to calculate IC50 and CC50 values by plotting a graph of the percentage of inhibition at various concentrations of all the observations.

[2] = tested on: axenic L.donovani amastigotes, AG83-R, SSG (SSG resistant strain generated from AG83); assay: microbe, parasite or virus in culture; assay type: cell-based
Procedure: as §1, §2, §3, §4, §5

[3] = tested on: intracellular L.donovani amastigotes, wild-type AG83, in macrophages; assay: Antileishmanial activity against intracellular amastigotes, wild-type AG83; assay type: cell-based; settings: for IC50: Leishmania donovani, Macrophage
Procedure: (§6) The intracellular antileishmanial activity was evaluated based on the reduction in the amastigote numbers in the infected macrophages after the treatment. The method was adapted from our previous work. Briefly, 4x10^6 amastigotes in 500 μL of RPMI-1640 suspension were added to each well containing macrophages with the macrophage: parasite ratio of 1:10. The plates were incubated for 4 h at 37°C in 5% CO2. After the parasite internalization period, cells were washed at least twice with fresh media to remove non-phagocytosed parasites. Then, the drug specimen suspended in 1 mL RPMI-1640 was added, and the samples were incubated for 72 h at 37°C in 5% CO2. The medium was aspirated, the coverslips were removed, and then fixed with methanol and air-dried. After staining with Giemsa, 100 cells on the glass discs were counted. Three independent experiments in quadruplicate for each concentration were performed.
as §4, §5

[4] = tested on: intracellular L.donovani amastigotes, AG83-R, PMM, in macrophages; assay: microbe, parasite or virus in culture; assay type: cell-based
Procedure: as §2, §6, §4, §5

[5] = tested on: intracellular L.donovani amastigotes, AG83-R, SSG, in macrophages; assay: microbe, parasite or virus in culture; assay type: cell-based
Procedure: as §2, §6, §4, §5

[6] = tested on: wild-type AG83 L. donovani amastigotes in spleen; assay: Leishman-Donovan Unit (LDU) assay in infected mice; assay type: in vivo, BALB/c mice
Procedure: Spleen smears were stained with Giemsa to confirm infection. The infected animals were divided into three groups consisting 4-5 animals per group. The groups were classified as the infected control group, BPQ treated group and BPQ+NP treated group. […] The infected control group was injected an equal volume of PBS during the entire dosing period. […] After that spleen impression smears were prepared on glass slides and stained with Giemsa to analyze infected visceral organ (spleen) microscopically. The parasite burdens were determined by evaluating the LDU values, which were calculated by multiplying the number of amastigotes counted per 500 nuclei with the spleen weight in mg.

[7] = IC50 against drug resistant strain / IC50 against wild-type strain (AG83), axenic

CC(C)(C)[C@H]1CC[C@H](CC2=C(O)C(=O)c3ccccc3C2=O)CC1 [BPQ, Buparvaquone]
Fold higher axenic IC50 of pure BPQ than BPQ+NP ([1]; AG83-R, PMM): 7 fold
Resistance index (RI), AG83-R, PMM [1, 7]: 2.1 ± 1.5
IC50 ([1]; Leishmania donovani, read-out: Axenic IC50, AG83-R, PMM): 7.1 ± 0.8 µM
Fold higher axenic IC50 of pure BPQ than BPQ+NP ([2]; AG83-R, SSG): 8 fold
Resistance index (RI), AG83-R, SSG [2, 7]: 2.4 ± 1.2
IC50 ([2]; Leishmania donovani, read-out: Axenic IC50, AG83-R, SSG): 8.1 ± 0.8 µM
Fold larger cellular IC50 of pure BPQ than BPQ+NP ([3]; AG83): 3 fold
Selectivity index (SI), AG83 ([3]; CC50/IC50, intracellular): 120 ± 10
IC50 ([3]; cellular model, range over all four L. donovani strains (Table 3), read-out: Cellular IC50, range over the strains): 2 to 5 µM
IC50 ([3]; intracellular amastigotes, 72 h, mean ± σ, n = 4, read-out: Cellular IC50, Wild-type AG83): 2.9 ± 0.3 µM
Fold larger cellular IC50 of pure BPQ than BPQ+NP ([4]; AG83-R, PMM): 5 fold
Selectivity index (SI), AG83-R, PMM ([4]; CC50/IC50, intracellular): 60 ± 10
IC50 ([4]; Leishmania donovani, Macrophage, 72 h, read-out: Cellular IC50, AG83-R, PMM): 4.8 ± 0.5 µM
Fold larger cellular IC50 of pure BPQ than BPQ+NP ([5]; AG83-R, SSG): 5 fold
Selectivity index (SI), AG83-R, SSG ([5]; CC50/IC50, intracellular): 60 ± 10
IC50 ([5]; Leishmania donovani, Macrophage, 72 h, read-out: Cellular IC50, AG83-R, SSG): 5.4 ± 0.4 µM
Fold reduction of amastigote burden in spleen compared with the control group ([6]; 1 mg/kg i.p. for 5 consecutive days): 20 fold
Spleen wt. ([6]; infected BALB/c mice, 1 mg/kg i.p. for 5 consecutive days, day 7 post-treatment, n = 5): 100 ± 10 mg
Suppression / inhibition of parasite burden in vivo (summary statement) ([6]; spleen of infected mice, intraperitoneal, corresponding doses): 50%
LDU (Leishman Donovan Unit = number of amastigotes per 500 nuclei × spleen weight in mg) ([6]; spleen, 1 mg/kg i.p. for 5 consecutive days): 2 ± 1 × 10^4
Amastigotes per 500 nuclei ([6]; spleen, 1 mg/kg i.p. for 5 consecutive days, day 7 post-treatment): 200 ± 20
